Measurements published in patent US20240059703A1 (AMGEN INC., priority 2021, published 2024).
pIC50: −log10 of the molar value.

Experiments:
[1] = test system: A549 (human lung carcinoma) cells; assay: Cell Viability Assay (CellTiter-Glo), A549; format: cell-based; conditions: Homo sapiens, A549, 72 h
Method in brief: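 Cells grown in RPMI 1640 with 10% FBS were seeded at 1.67E+04 cells/mL and left overnight at 37° C., 5% CO2. They were then exposed to serially diluted compound for 72 h, after which CellTiter-Glo luminescence was read, normalized to DMSO, and fitted to a 4-parameter logistic model for IC50.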

KRAS G12C = KRAS G12C (Homo sapiens (Human), UniProt P01116, C118A/G12C); assay: 2 h coupled exchange assay; format: biochemical; conditions: Avg 2 h Coupled exchange IC50, 2 h compound pre-incubation
Protocol: The term “2 h coupled exchange assay” or “20 h coupled exchange assay” as used herein refers to the assay described in the Section entitled “BIOLOGICAL EVALUATION.”

[2] = test system: MIA PaCa-2 (human pancreatic carcinoma) cells; assay: Cell Viability Assay (CellTiter-Glo), MIA PaCa-2; format: cell-based; conditions: Homo sapiens, MIA PaCa-2, 72 h
Protocol: Serially-diluted compound or DMSO was added to the cells, and plates were incubated at 37° C., 5% CO2 for 72 h. Cell viability was measured using a CellTiter-Glo® Luminescent Cell Viability Assay kit (Promega) according to the manufacturer's protocol. The luminescence signal of treated samples was normalized to DMSO control, and data were analyzed using a 4-parameter logistic model to calculate IC50 values.

Chain of KRAS G12C (P01116 other isoform, or with tags, fused parts or gaps G12C/C118A): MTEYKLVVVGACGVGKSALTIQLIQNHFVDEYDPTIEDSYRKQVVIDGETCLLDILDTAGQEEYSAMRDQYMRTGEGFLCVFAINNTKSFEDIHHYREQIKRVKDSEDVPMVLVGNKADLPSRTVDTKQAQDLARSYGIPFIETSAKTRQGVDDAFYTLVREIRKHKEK

pIC50 [1]	pIC50 (KRAS G12C)	pIC50 [2]	Compound
4.82	6.95	5.95	C=CC(=O)N1CC2(CCN(c3nc4cc(-c5scnc5CO)cnc4c(-c4ccccc4F)c3C#N)C2)C1 [Example 19-10, 4-(2-fluorophenyl)-7-(4-(hydroxymethyl)-1,3-thiazol-5-yl)-2-(2-(2-propenoyl)-2,6-diazaspiro[3.4]octan-6-yl)-1,5-naphthyridine-3-carbonitrile]
< 5.30	6.83	5.81	C=CC(=O)N1CC2(CCN(c3nc4cc(-c5scnc5C)ccc4c(-c4ccccc4Cl)c3C#N)C2)C1 [Example 20-1, 4-(2-chlorophenyl)-7-(4-methyl-1,3-thiazol-5-yl)-2-(2-(2-propenoyl)-2,6-diazaspiro[3.4]octan-6-yl)-3-quinolinecarbonitrile]
< 5.30	6.84	5.84	C=CC(=O)N1CC2(CCN(c3nc4cc(-c5scnc5C)ccc4c(-c4ccccc4F)c3C#N)C2)C1 [Example 20-2, 4-(2-fluorophenyl)-7-(4-methyl-1,3-thiazol-5-yl)-2-(2-(2-propenoyl)-2,6-diazaspiro[3.4]octan-6-yl)-3-quinolinecarbonitrile]
5.04	6.24	5.26	C=CC(=O)N1CC2(CCN(c3nc4cc(OC)ccc4c(-c4ccccc4Cl)c3C#N)C2)C1 [Example 20-5, 4-(2-chlorophenyl)-7-methoxy-2-(2-(2-propenoyl)-2,6-diazaspiro[3.4]octan-6-yl)-3-quinolinecarbonitrile]
< 5.30	6.91	5.81	C=CC(=O)N1CC2(CCN(c3nc4cc(-c5scnc5C)ccc4c(-c4cccc(C)c4C)c3C#N)C2)C1 [Example 20-6, 4-(2,3-dimethylphenyl)-7-(4-methyl-1,3-thiazol-5-yl)-2-(2-(2-propenoyl)-2,6-diazaspiro[3.4]octan-6-yl)-3-quinolinecarbonitrile]
< 5.30	6.88	6.27	C=CC(=O)N1CC2(CCN(c3nc4cc(-c5scnc5C)cnc4c(-c4ccccc4Cl)c3C#N)C2)C1 [Example 20-7, 4-(2-chlorophenyl)-7-(4-methyl-1,3-thiazol-5-yl)-2-(2-(2-propenoyl)-2,6-diazaspiro[3.4]octan-6-yl)-1,5-naphthyridine-3-carbonitrile]
5.17	6.05	5.27	C=CC(=O)N1CC2(CCN(c3nc4cc(-c5scnc5C)c(C)cc4c(-c4ccccc4Cl)c3C#N)C2)C1 [Example 20-10, 2-(2-acryloyl-2,6-diazaspiro[3.4]octan-6-yl)-4-(2-chlorophenyl)-6-methyl-7-(4-methylthiazol-5-yl)quinoline-3-carbonitrile]
5.06	6.08	5.51	C=CC(=O)N1CC2(CCN(c3nc4cc(OC(C)C)ccc4c(-c4ccccc4Cl)c3C#N)C2)C1 [Example 20-11, 4-(2-chlorophenyl)-7-(2-propanyloxy)-2-(2-(2-propenoyl)-2,6-diazaspiro[3.4]octan-6-yl)-3-quinolinecarbonitrile]
< 4.60	6.61	5.69	C=CC(=O)N1CC2(CCN(c3nc4cc(-c5cncnc5)ccc4c(-c4ccc(F)cc4F)c3C#N)C2)C1 [Example 20-12, 4-(2,4-difluorophenyl)-2-(2-(2-propenoyl)-2,6-diazaspiro[3.4]octan-6-yl)-7-(5-pyrimidinyl)-3-quinolinecarbonitrile]
5.22	6.98	5.97	C=CC(=O)N1CC2(CCN(c3nc4cc(-c5scnc5C)ccc4c(-c4ccc(F)cc4F)c3C#N)C2)C1 [Example 20-13, 4-(2,4-difluorophenyl)-7-(4-methyl-1,3-thiazol-5-yl)-2-(2-(2-propenoyl)-2,6-diazaspiro[3.4]octan-6-yl)-3-quinolinecarbonitrile]
5.04	6.61	5.87	C=CC(=O)N1CC2(CCN(c3nc4cc(-c5nccn5C)ccc4c(-c4ccc(F)cc4F)c3C#N)C2)C1 [Example 20-14, 4-(2,4-difluorophenyl)-7-(1-methyl-1H-imidazol-2-yl)-2-(2-(2-propenoyl)-2,6-diazaspiro[3.4]octan-6-yl)-3-quinolinecarbonitrile]
< 5.30	6.94	6.19	C=CC(=O)N1CC2(CCN(c3nc4cc(-c5scnc5C)cnc4c(-c4ccccc4F)c3C#N)C2)C1 [Example 20-15, 4-(2-fluorophenyl)-7-(4-methyl-1,3-thiazol-5-yl)-2-(2-(2-propenoyl)-2,6-diazaspiro[3.4]octan-6-yl)-1,5-naphthyridine-3-carbonitrile]
5.04	6.91	6.09	C=CC(=O)N1CC2(CCN(c3nc4cc(-c5scnc5COC)ccc4c(-c4ccccc4F)c3C#N)C2)C1 [Example 20-16, 4-(2-fluorophenyl)-7-(4-(methoxymethyl)-1,3-thiazol-5-yl)-2-(2-(2-propenoyl)-2,6-diazaspiro[3.4]octan-6-yl)-3-quinolinecarbonitrile]
5.12	6.37	5.74	C=CC(=O)N1CC2(CCN(c3nc4cc(-c5scnc5C)ccc4c(-c4ccccc4OC)c3C#N)C2)C1 [Example 20-17, 4-(2-methoxyphenyl)-7-(4-methyl-1,3-thiazol-5-yl)-2-(2-(2-propenoyl)-2,6-diazaspiro[3.4]octan-6-yl)-3-quinolinecarbonitrile]
< 5.30	7.02	6.19	C=CC(=O)N1CC2(CCN(c3nc4cc(-c5scnc5CO)ccc4c(-c4ccccc4F)c3C#N)C2)C1 [Example 20-18, 4-(2-fluorophenyl)-7-(4-(hydroxymethyl)-1,3-thiazol-5-yl)-2-(2-(2-propenoyl)-2,6-diazaspiro[3.4]octan-6-yl)-3-quinolinecarbonitrile]
5.32	6.49	5.68	C=CC(=O)N1CC2(CCN(c3nc4cc(-c5cncs5)ccc4c(-c4ccccc4F)c3C#N)C2)C1 [Example 20-19, 4-(2-fluorophenyl)-2-(2-(2-propenoyl)-2,6-diazaspiro[3.4]octan-6-yl)-7-(1,3-thiazol-5-yl)-3-quinolinecarbonitrile]
5.16	6.79	5.76	C=CC(=O)N1CC2(CCN(c3nc4cc(-c5scnc5C)ccc4c(-c4ccccc4O)c3C#N)C2)C1 [Example 20-20, 4-(2-hydroxyphenyl)-7-(4-methyl-1,3-thiazol-5-yl)-2-(2-(2-propenoyl)-2,6-diazaspiro[3.4]octan-6-yl)-3-quinolinecarbonitrile]
4.97	6.02	5.30	C=CC(=O)N1CC2(CCN(c3nc4cc(-c5scnc5C)cnc4c(-c4cccc(O)c4)c3C#N)C2)C1 [Example 20-21, 4-(3-hydroxyphenyl)-7-(4-methyl-1,3-thiazol-5-yl)-2-(2-(2-propenoyl)-2,6-diazaspiro[3.4]octan-6-yl)-1,5-naphthyridine-3-carbonitrile]
4.92	6.43	5.13	C=CC(=O)N1CC2(CCN(c3nc4cc(-c5scnc5C)cnc4c(-c4ccc(F)c(O)c4)c3C#N)C2)C1 [Example 20-22, 4-(4-fluoro-3-hydroxyphenyl)-7-(4-methyl-1,3-thiazol-5-yl)-2-(2-(2-propenoyl)-2,6-diazaspiro[3.4]octan-6-yl)-1,5-naphthyridine-3-carbonitrile]
< 5.30	7.39	6.49	C=CC(=O)N1CC2(CCN(c3nc4c(c(-c5ccccc5F)c3C#N)CCN(c3scnc3C)C4)C2)C1 [Example 21-1, 4-(2-fluorophenyl)-7-(4-methyl-1,3-thiazol-5-yl)-2-(2-(2-propenoyl)-2,6-diazaspiro[3.4]octan-6-yl)-5,6,7,8-tetrahydro-1,7-naphthyridine-3-carbonitrile]
< 5.30	6.72	6.09	C=CC(=O)N1CC2(CCN(c3nc4c(c(-c5ccccc5F)c3C#N)CCN(c3ccnn3C)C4)C2)C1 [Example 21-2, 4-(2-fluorophenyl)-7-(1-methyl-1H-pyrazol-5-yl)-2-(2-(2-propenoyl)-2,6-diazaspiro[3.4]octan-6-yl)-5,6,7,8-tetrahydro-1,7-naphthyridine-3-carbonitrile]
< 5.30	7.60	6.72	C=CC(=O)N1CC2(CCN(c3nc4c(c(-c5ccc(F)cc5F)c3C#N)CCN(c3scnc3C)C4)C2)C1 [Example 21-3, 4-(2,4-difluorophenyl)-7-(4-methyl-1,3-thiazol-5-yl)~2-(2-(2-propenoyl)-2,6-diazaspiro[3.4]octan-6-yl)-5,6,7,8-tetrahydro-1,7-naphthyridine-3~carbonitrile]
5.00	7.07	5.79	C=CC(=O)N1CC2(CCN(c3nc4c(c(-c5ccccc5F)c3C#N)CCN(c3scnc3C)C4C)C2)C1 [Example 21-4, (8R)-4-(2-fluorophenyl)-8-methyl-7-(4-methyl-1,3-thiazol-5-yl)-2-(2-(2-propenoyl)-2,6-diazaspiro[3.4]octan-6-yl)-5,6,7,8-tetrahydro-1,7-naphthyridine-3-carbonitrile (8S)-4-(2-fluorophenyl)-8-methyl-7-(4-methyl-1,3-thiazol-5-yl)-2-(2-(2-propenoyl)-2,6-diazaspiro[3.4]octan-6-yl)-5,6,7,8-tetrahydro-1,7-naphthyridine-3-carbonitrile]
